Earlier results in patent US20070212498A1, “Optical film, antireflection film, polarizing plate, display apparatus and method for manufacturing optical film” (FUJIFILM Corporation, priority 2006, published 2007).

Conditions: pKa of the conjugate acid, values in an aqueous solution (Kagaku Binran Kiso Hen)

| pKa | Compound |
| --- | --- |
| 7.7 | CCC1CNCCO1 (centres unmarked) [b-13, 2-Ethyl morpholine] |
| 7.8 | CC1CNCCO1 (centres unmarked) [b-14, 2-Methyl morpholine] |
